Results as given in ChEMBL document CHEMBL1201862, “PubChem BioAssay data set” (2004).
The source made the active and inactive calls.

What was measured:
[1] = molecular target: Mucolipin-3 (Homo sapiens, UniProt Q8TDD5); assay: Dose response cell-based high-throughput screening assay for agonists of the transient receptor potential channel ML3 (TRPML3). [Related pubchem assays: 1526, 1424, 1448 ]; assay type: functional
[2] = molecular target: Ion channel NompC (Danio rerio, UniProt Q7T1G6); assay: Fluorescence counterscreen assay for TRPML3 agonists: dose response cell-based high-throughput screening assay to identify agonists of the transient receptor potential channel N1 (TRPN1). [Related pubchem assays: 1526, 1424, 1448 ]; assay type: functional
[3] = viability of HCT116 lacking mutant beta-catenin – cell-based, human colon tumor, dose response (AID 1045); assay type: functional;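 note: HCT116 colon tumor cells with beta catenin knocked out; cells exposed to compound for 60 hours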
[4] = viability of PTEN-deleted HCT116 cells – cell-based, HCT116 PTEN knockout, dose response (AID 1047); assay type: functional;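 note: HCT116 colon tumor cells with PTEN knocked out; cells exposed to compound for 60 hours before readout; potency for loss of cell viability measured by luminescence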
[5] = molecular target: Sphingosine 1-phosphate receptor 3 (Homo sapiens, UniProt Q99500); assay: Dose response cell-based high throughput screening assay for antagonists of the Sphingosine 1-Phosphate Receptor 3 (S1P3). [Related pubchem assays: 1429, 485 ]; assay type: functional
[6] = molecular target: 5-hydroxytryptamine receptor 1E (Homo sapiens, UniProt P28566); assay: Counterscreen assay for S1P3 antagonists: Dose response cell-based high throughput screening assay to identify antagonists of the 5-Hydroxytryptamine Receptor Subtype 1E (5HT1E). [Related pubchem assays: 1429, 485 ]; assay type: functional
[7] = molecular target: T1, E3 ubiquitin-protein ligase XIAP (Homo sapiens, UniProt P98170); assay: small molecules displacing peptide from XIAP – biochemical, IAP family, fluorescence polarization (AID 1018); assay type: functional
[8] = molecular target: T1, E3 ubiquitin-protein ligase XIAP; assay: Counter Screen using XIAP-Bir3 for Chemical Antagonists of Bir1/2 domains of IAP-family anti-apoptotic proteins. [Related pubchem assays (depositor defined):AID1018, AID1449, AID1514, AID1638, AID1749, AID1750, AID488957, AID488963]
[9] = system: Streptococcus; assay: GAS bacterial viability reduction – luminescence, BacTiter-Glo, strain UMAA2166, counter-screen for streptokinase expression inhibitor project, dose response (AID 2477); assay type: functional, organism-based
[10] = molecular target: T2, Streptokinase A (Streptococcus pyogenes serotype M1, UniProt P10520); assay: Absorbance Microorganism-Based Dose Response Follow up to Identify Inhibitors of Streptokinase Expression. [Related pubchem assays: 1677 (Project Summary), 1915, 1914, 1902 (Retest at Dose), 1900 (Counter Screen), 1662 (Primary HTS)]; assay type: functional, Streptococcus pyogenes M1 GAS
T2 sequence (P10520 whole entry): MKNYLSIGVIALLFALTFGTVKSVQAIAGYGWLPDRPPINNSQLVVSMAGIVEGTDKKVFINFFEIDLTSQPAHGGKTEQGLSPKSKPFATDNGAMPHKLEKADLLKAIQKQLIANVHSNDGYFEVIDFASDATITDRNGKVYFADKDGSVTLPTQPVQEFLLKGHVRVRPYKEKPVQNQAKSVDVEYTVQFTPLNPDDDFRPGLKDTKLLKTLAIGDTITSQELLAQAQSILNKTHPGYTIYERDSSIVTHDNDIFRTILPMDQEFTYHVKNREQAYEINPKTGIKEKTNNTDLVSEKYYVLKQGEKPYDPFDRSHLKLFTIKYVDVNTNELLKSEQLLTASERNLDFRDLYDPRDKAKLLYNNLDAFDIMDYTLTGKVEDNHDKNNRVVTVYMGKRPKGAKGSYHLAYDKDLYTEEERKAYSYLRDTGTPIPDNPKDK

[11] = molecular target: Peroxisome proliferator-activated receptor gamma/Nuclear receptor coactivator 1 (Homo sapiens, UniProt P37231); assay: (§1) TR-FRET dose response biochemical High Throughput Screening assay for agonists of the steroid receptor coactivator 1 (SRC-1) recruitment by the peroxisome proliferator-activated receptor gamma (PPAR gamma): non-selective agonists. [Related pubchem assays (depositor defined):AID1300, AID1808, AID504735, AID631]; assay type: protein assay
[12] = molecular target: Peroxisome proliferator-activated receptor gamma/Nuclear receptor coactivator 3 (Homo sapiens, UniProt P37231); assay: as §1, with “3 (SRC-3)” for “1 (SRC-1)”, “assays: 1301 (Confirmation screen.), 1048 (Primary screen.)]” for “assays (depositor defined):AID1300, AID1808, AID504735, AID631]”; assay type: functional
[13] = molecular target: Peroxisome proliferator-activated receptor gamma/Nuclear receptor coactivator 2 (Homo sapiens, UniProt P37231); assay: TR-FRET dose response biochemical High Throughput Screening assay for agonists of the steroid receptor coactivator 2 (SRC-2) recruitment by the peroxisome proliferator-activated receptor gamma (PPAR gamma): non-selective agonists. [Related pubchem assays: 1297, 1032 ]; assay type: functional
[14] = molecular target: Photoreceptor-specific nuclear receptor (Homo sapiens, UniProt Q9Y5X4); assay: ligands suppressing NR2E3 nuclear receptor activity – biochemical, TR-FRET, dose response (AID 463256); assay type: functional
[15] = molecular target: Peroxisome proliferator-activated receptor gamma/Nuclear receptor corepressor 2 (Homo sapiens, UniProt P37231+Q9Y618); assay: Counterscreen for NR2E3 inverse agonists: TR-FRET-based biochemical high throughput dose response assay to identify inverse agonists of the interaction between peroxisome proliferator-activated receptor gamma (PPARg) and nuclear receptor co-repressor 2 (NCOR2).; assay type: functional
[16] = molecular target: Protein-tyrosine kinase 2-beta (Homo sapiens, UniProt Q14289);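 note: potency of inhibitors of PYK2 kinase phosphorylation of poly-GT substrate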
[17] = molecular target: NADPH oxidase 1 (Homo sapiens, UniProt Q9Y5S8); assay type: functional, cell-based;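 note: Cell-based assay with luminescence read-out, IC50 derived from inhibitor dose-response curves; intracellular ROS from endogenous NOX1 in intact HT29 colon cancer cells; potency of inhibitors that lower the ROS luminescence signal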

T1 sequence (P98170 whole entry): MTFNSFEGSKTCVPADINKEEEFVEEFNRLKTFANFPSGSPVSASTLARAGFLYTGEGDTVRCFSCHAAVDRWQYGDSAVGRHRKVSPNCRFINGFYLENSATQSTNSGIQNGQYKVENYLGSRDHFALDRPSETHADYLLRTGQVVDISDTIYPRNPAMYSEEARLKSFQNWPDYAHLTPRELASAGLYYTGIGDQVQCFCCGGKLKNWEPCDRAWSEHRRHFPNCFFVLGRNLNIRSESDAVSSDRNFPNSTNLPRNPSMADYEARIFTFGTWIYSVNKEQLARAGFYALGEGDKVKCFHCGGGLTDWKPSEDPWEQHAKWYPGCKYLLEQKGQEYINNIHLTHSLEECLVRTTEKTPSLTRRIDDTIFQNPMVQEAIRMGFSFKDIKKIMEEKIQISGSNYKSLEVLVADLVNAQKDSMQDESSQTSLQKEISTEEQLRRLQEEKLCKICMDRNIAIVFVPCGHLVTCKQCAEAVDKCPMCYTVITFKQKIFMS
Sequence of Peroxisome proliferator-activated receptor gamma/Nuclear receptor coactivator 2 (P37231 whole entry): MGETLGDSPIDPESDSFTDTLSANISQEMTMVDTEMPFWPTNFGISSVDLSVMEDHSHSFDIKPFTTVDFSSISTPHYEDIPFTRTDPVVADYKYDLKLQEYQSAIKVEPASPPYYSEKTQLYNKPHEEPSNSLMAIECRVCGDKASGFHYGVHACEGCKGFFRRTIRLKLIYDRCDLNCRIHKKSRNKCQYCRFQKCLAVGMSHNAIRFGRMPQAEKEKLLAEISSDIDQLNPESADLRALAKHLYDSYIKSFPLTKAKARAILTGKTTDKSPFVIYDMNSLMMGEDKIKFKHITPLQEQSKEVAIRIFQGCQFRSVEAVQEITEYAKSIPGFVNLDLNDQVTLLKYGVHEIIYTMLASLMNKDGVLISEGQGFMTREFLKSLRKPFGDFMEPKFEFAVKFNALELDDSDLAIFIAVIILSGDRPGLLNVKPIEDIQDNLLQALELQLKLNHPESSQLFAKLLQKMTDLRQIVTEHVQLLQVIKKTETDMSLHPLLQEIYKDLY
Sequence of Peroxisome proliferator-activated receptor gamma/Nuclear receptor coactivator 2 (Q15596 whole entry, further chain): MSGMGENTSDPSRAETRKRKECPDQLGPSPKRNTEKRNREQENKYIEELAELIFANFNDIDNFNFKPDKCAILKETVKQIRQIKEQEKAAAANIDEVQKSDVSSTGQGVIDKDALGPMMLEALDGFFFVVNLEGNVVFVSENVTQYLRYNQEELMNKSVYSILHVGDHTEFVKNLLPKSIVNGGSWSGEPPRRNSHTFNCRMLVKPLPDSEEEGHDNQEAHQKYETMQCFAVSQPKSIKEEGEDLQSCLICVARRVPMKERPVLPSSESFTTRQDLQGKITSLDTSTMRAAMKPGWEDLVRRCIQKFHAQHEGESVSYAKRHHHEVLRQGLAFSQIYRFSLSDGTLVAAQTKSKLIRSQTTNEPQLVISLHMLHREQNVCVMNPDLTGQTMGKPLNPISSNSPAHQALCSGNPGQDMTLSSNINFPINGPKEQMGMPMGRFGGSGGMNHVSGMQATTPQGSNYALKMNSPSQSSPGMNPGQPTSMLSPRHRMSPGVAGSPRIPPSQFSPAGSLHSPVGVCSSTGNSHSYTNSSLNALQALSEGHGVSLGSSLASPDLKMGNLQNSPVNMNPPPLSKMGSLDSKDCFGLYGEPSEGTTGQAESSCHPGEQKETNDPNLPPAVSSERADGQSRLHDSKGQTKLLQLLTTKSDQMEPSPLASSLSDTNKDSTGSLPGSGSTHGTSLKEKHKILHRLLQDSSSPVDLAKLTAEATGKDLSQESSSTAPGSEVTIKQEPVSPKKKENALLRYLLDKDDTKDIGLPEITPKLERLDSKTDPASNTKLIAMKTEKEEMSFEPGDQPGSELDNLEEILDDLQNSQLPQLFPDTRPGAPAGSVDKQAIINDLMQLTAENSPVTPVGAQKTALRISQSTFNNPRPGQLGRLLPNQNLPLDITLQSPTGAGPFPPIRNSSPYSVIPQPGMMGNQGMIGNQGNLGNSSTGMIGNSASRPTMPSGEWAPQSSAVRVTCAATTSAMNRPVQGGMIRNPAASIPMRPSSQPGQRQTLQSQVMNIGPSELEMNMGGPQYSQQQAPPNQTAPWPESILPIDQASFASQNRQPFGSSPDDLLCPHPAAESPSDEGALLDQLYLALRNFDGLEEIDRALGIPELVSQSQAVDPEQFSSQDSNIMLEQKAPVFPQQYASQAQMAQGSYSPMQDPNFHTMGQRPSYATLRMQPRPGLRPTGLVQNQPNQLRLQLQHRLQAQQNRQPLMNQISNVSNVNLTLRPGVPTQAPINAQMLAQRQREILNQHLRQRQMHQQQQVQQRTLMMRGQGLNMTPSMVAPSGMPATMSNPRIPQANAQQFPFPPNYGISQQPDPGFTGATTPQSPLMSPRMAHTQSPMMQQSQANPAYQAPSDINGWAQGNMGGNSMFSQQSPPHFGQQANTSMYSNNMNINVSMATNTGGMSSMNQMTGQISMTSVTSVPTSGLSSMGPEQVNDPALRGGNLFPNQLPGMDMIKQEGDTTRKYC
Sequence of Peroxisome proliferator-activated receptor gamma/Nuclear receptor coactivator 1 (P37231 whole entry): as the sequence (P37231 whole entry) above
Sequence of Peroxisome proliferator-activated receptor gamma/Nuclear receptor coactivator 1 (Q15788 whole entry, further chain): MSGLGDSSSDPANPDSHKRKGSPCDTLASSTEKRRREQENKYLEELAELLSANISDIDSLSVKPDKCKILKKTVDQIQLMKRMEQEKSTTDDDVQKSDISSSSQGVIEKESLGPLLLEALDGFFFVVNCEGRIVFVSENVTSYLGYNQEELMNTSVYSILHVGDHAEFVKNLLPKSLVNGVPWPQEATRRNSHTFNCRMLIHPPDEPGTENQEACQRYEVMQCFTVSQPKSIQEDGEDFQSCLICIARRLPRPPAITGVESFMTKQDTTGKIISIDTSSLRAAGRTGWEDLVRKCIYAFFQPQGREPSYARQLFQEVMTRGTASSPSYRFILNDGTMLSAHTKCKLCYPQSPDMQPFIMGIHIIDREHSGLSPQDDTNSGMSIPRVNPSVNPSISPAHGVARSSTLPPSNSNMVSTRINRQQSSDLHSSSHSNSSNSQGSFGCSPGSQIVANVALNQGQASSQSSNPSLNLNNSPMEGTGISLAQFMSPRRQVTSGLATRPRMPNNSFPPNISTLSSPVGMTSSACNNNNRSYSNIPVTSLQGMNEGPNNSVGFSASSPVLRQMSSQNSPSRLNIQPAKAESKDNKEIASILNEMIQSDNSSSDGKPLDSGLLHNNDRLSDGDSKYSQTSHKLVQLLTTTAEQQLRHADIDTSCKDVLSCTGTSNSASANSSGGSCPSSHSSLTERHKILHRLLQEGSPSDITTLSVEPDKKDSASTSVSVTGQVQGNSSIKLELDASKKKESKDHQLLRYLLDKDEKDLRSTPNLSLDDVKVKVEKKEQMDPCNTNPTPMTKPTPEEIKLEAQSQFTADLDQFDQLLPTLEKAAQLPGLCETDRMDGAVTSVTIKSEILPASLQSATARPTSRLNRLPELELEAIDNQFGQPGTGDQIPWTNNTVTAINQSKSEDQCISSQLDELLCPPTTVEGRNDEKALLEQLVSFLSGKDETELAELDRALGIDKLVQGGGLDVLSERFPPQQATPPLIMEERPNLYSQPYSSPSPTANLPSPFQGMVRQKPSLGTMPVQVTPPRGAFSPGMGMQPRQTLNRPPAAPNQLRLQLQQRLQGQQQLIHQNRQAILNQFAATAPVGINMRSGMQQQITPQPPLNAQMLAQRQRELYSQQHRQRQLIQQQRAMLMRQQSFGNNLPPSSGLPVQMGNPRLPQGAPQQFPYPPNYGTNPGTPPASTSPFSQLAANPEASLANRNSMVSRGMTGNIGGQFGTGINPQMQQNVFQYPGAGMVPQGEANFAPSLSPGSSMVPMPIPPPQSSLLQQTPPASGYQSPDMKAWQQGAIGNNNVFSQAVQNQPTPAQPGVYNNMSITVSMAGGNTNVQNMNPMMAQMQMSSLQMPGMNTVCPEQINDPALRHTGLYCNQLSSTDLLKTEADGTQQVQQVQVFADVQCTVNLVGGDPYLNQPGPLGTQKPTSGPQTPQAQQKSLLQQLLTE
Sequence of 5-hydroxytryptamine receptor 1E (P28566 whole entry): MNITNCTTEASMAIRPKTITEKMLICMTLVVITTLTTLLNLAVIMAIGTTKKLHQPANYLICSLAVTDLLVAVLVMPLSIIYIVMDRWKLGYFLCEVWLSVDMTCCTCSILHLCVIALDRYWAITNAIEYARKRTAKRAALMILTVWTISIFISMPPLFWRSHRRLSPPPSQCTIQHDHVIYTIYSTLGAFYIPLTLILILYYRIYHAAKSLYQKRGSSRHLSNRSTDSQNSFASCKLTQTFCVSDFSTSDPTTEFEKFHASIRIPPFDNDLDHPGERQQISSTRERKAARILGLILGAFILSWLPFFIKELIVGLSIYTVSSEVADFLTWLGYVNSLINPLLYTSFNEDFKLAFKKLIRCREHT

In the case of `Cc1ccccc1S(=O)(=O)c1c(C)cc(C)n(C(C)C)c1=O`, the EC50 [1] is reported as 2.44 µM (active) and the EC50 [2] is reported as > 29.9 µM (not active).
In the case of `O=C(OC(C(=O)Nc1cccc(C(F)(F)F)c1)c1ccccc1)C1CCCCC1` (configuration not stated), the EC50 [3] is reported as 518 µM (active), the EC50 [4] is reported as 118 µM (active) and the IC50 [5] is reported as 7.69 µM (active). For the same compound, the IC50 [6] was 11.2 µM (not active).
With `O=C(CCN1C(=O)C2C3C=CC(C3)C2C1=O)N1CCN(c2ccccc2F)CC1` (configuration not stated) the IC50 [7] was > 100 µM (not active) and the IC50 [8] was > 100 µM (inactive).
With `CC(C)Oc1nc(-c2ccc(Cl)cc2)nc2ccccc12` the EC50 [9] was 51.2 µM (active) and the EC50 [10] was 6.9 µM (active).
With `COc1ccc(C(=O)Nc2nc3ccc4nc(C)sc4c3s2)cc1` the EC50 [11] was 45.2 µM (inactive), the EC50 [12] was 58.7 µM (not active) and the EC50 [13] was 37.9 µM (not active). The IC50 [14] was 0.862 µM (active), the IC50 [15] was 2.19 µM (active) and the IC50 [16] was 1.45 µM (active).
With `Clc1ccc2c(c1)Nc1ccccc1S2` the IC50 [17] was 0.254 µM (active).
